Reference: patent US12599136B2, “Substituted isophthalic acid diamides and their use as herbicides” (Bayer Aktiengesellschaft, priority 2020, dated 2026)

Tests used:
Assay type in all cases: in vivo
Viola tricolor [1] = assay: Post-emergence herbicidal action against VIOTR
How it was run: (§1)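 A WP or EC formulation diluted in water with 0.2% wetting agent was sprayed at 600 to 800 l/ha onto one-leaf-stage plants grown in sandy loam. About 3 weeks later, action was rated visually in percent, 100% being dead plants.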

Amaranthus retroflexus [2] = assay: Pre-emergence herbicidal action against AMARE; conditions: visual score after 3 weeks vs untreated controls
How it was run: (§2)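 Greenhouse pots of sandy loam held seeds covered with soil, onto which the compound was applied before emergence. An aqueous suspension or emulsion of WP or EC was used at 600 to 800 l/ha with 0.2% wetting agent. Percent damage was judged visually at 3 weeks.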

Veronica persica [3] = assay: Pre-emergence herbicidal action against VERPE
How it was run: as §2

Echinochloa crus-galli [4] = assay: Pre-emergence herbicidal action against ECHCG; conditions: 80 g/ha; visual score after 3 weeks vs untreated controls
How it was run: as §2

Echinochloa crus-galli [5] = assay: Post-emergence herbicidal action against ECHCG; conditions: visual assessment about 3 weeks after treatment
How it was run: as §1

Digitaria sanguinalis [6] = assay: Post-emergence herbicidal action against DIGSA
How it was run: as §1

Abutilon theophrasti [7] = assay: Pre-emergence herbicidal action against ABUTH; conditions: visual score after 3 weeks vs untreated controls
How it was run: as §2

Matricaria inodora [8] = assay: Pre-emergence herbicidal action against MATIN; conditions: visual score after 3 weeks vs untreated controls
How it was run: as §2

Alopecurus myosuroides [9] = assay: Pre-emergence herbicidal action against ALOMY; conditions: 80 g/ha; visual score after 3 weeks vs untreated controls
How it was run: as §2

Matricaria inodora [10] = assay: Post-emergence herbicidal action against MATIN; conditions: visual assessment about 3 weeks after treatment
How it was run: as §1

Alopecurus myosuroides [11] = assay: Post-emergence herbicidal action against ALOMY
How it was run: as §1

Setaria viridis [12] = assay: Pre-emergence herbicidal action against SETVI; conditions: 80 g/ha
How it was run: as §2

Avena fatua [13] = assay: Post-emergence herbicidal action against AVEFA; conditions: 20 g/ha, visual assessment about 3 weeks after treatment
How it was run: as §1

Polygonum convolvulus = assay: Post-emergence herbicidal action against POLCO; conditions: 20 g/ha, visual assessment about 3 weeks after treatment
Protocol: Seeds of monocotyledonous and dicotyledonous weed and crop plants are laid out in sandy loam soil in wood-fiber pots, covered with soil and cultivated in a greenhouse under good growth conditions. 2 to 3 weeks after sowing, the test plants are treated at the one-leaf stage. The compounds of the invention, formulated in the form of wettable powders (WP) or as emulsion concentrates (EC), are then sprayed onto the green parts of the plants in the form of an aqueous suspension or emulsion at a water application rate equivalent to 600 to 800 l/ha, with addition of 0.2% wetting agent. After the test plants have been left to stand in the greenhouse under optimal growth conditions for about 3 weeks, the action of the preparations is assessed visually in comparison to untreated controls (herbicidal action in percent (%): 100% activity=the plants have died, 0% activity=like control plants). […] The tables below illustrate, in an illustrative manner, the post-emergence herbicidal action of the compounds of the invention, the herbicidal activity being stated in percent.

Pharbitis purpurea = assay: Pre-emergence herbicidal action against PHBPU; conditions: 80 g/ha; visual score after 3 weeks vs untreated controls
How it was run: as §2

Amaranthus retroflexus [14] = assay: Post-emergence herbicidal action against AMARE; conditions: visual assessment about 3 weeks after treatment
How it was run: as §1

Digitaria sanguinalis [15] = assay: Pre-emergence herbicidal action against DIGSA
How it was run: as §2

Viola tricolor [16] = assay: Pre-emergence herbicidal action against VIOTR
How it was run: as §2

Setaria viridis [17] = assay: Post-emergence herbicidal action against SETVI; conditions: 20 g/ha, visual assessment about 3 weeks after treatment
How it was run: as §1

Veronica persica [18] = assay: Post-emergence herbicidal action against VERPE; conditions: 20 g/ha, visual assessment about 3 weeks after treatment
How it was run: as §1

Abutilon theophrasti [19] = assay: Post-emergence herbicidal action against ABUTH; conditions: 20 g/ha
How it was run: as §1

Avena fatua [20] = assay: Pre-emergence herbicidal action against AVEFA; conditions: 80 g/ha; visual score after 3 weeks vs untreated controls
How it was run: as §2

Row | Compound | Post-emergence action against VIOTR in % (Viola tricolor [1]; 5 g/ha) [%] | Post-emergence action against VIOTR in % (Viola tricolor [1]; 20 g/ha) [%] | Pre-emergence action against AMARE (Amaranthus retroflexus [2]; 20 g/ha) [%] | Pre-emergence action against AMARE (Amaranthus retroflexus [2]; 80 g/ha) [%] | Pre-emergence action against VERPE (Veronica persica [3]; 80 g/ha) [%] | Pre-emergence action against ECHCG (Echinochloa crus-galli [4]) [%] | Post-emergence action against ECHCG in % (Echinochloa crus-galli [5]; 20 g/ha) [%] | Post-emergence action against DIGSA in % (Digitaria sanguinalis [6]; 5 g/ha) [%] | Post-emergence action against DIGSA in % (Digitaria sanguinalis [6]; 20 g/ha) [%] | Pre-emergence action against ABUTH (Abutilon theophrasti [7]; 20 g/ha) [%] | Pre-emergence action against ABUTH (Abutilon theophrasti [7]; 80 g/ha) [%] | Pre-emergence action against MATIN (Matricaria inodora [8]; 20 g/ha) [%] | Pre-emergence action against MATIN (Matricaria inodora [8]; 80 g/ha) [%] | Pre-emergence action against ALOMY (Alopecurus myosuroides [9]) [%] | Post-emergence action against MATIN in % (Matricaria inodora [10]; 5 g/ha) [%] | Post-emergence action against MATIN in % (Matricaria inodora [10]; 20 g/ha) [%] | Post-emergence action against ALOMY (Alopecurus myosuroides [11]; 20 g/ha) [%] | Pre-emergence action against SETVI (Setaria viridis [12]) [%] | Post-emergence action against AVEFA in % (Avena fatua [13]) [%] | Post-emergence action against POLCO in % (Polygonum convolvulus) [%] | other results
1 | CCN(C(=O)c1c(C(F)(F)F)ccc(C(=O)Nc2nnnn2CC)c1C)C1CC1 [Example 2-32] | 80 | 90 | 100 | 100 | 90 | 90 | 90 | 90 | 90 | 100 | 100 | 80 | 100 | 90 | 80 | 90 | 100 | 100 | 80 | 80 | Pre-emergence action against VERPE (Veronica persica [3]; 20 g/ha): 90%; Post-emergence action against ECHCG in % (Echinochloa crus-galli [5]; 5 g/ha): 90%; Post-emergence action against ALOMY (Alopecurus myosuroides [11]; 5 g/ha): 80%; Pre-emergence action against PHBPU (Pharbitis purpurea): 80%; Post-emergence action against AMARE in % (Amaranthus retroflexus [14]; 5 g/ha): 100%; Post-emergence action against AMARE in % (Amaranthus retroflexus [14]; 20 g/ha): 100%; Pre-emergence action against DIGSA (Digitaria sanguinalis [15]; 20 g/ha): 100%; Pre-emergence action against DIGSA (Digitaria sanguinalis [15]; 80 g/ha): 100%; Pre-emergence action against VIOTR (Viola tricolor [16]; 20 g/ha): 90%; Pre-emergence action against VIOTR (Viola tricolor [16]; 80 g/ha): 100%; Post-emergence action against SETVI in % (Setaria viridis [17]): 90%
2 | Cc1c(C(=O)Nc2nnnn2C)ccc(C(F)(F)F)c1C(=O)N(C)CC(F)F [Example 1-24] | 80 | 90 | 100 | 100 | 100 | 100 | 80 | 100 | 100 | 100 | 100 | 90 | 100 | 90 | 90 | 90 | 90 | 100 | 80 | 100 | Post-emergence action against VERPE in % (Veronica persica [18]): 80%; Post-emergence action against ABUTH (Abutilon theophrasti [19]): 80%; Pre-emergence action against AVEFA (Avena fatua [20]): 90%; Post-emergence action against AMARE in % (Amaranthus retroflexus [14]; 20 g/ha): 90%; Pre-emergence action against DIGSA (Digitaria sanguinalis [15]; 20 g/ha): 100%; Pre-emergence action against DIGSA (Digitaria sanguinalis [15]; 80 g/ha): 100%; Pre-emergence action against VIOTR (Viola tricolor [16]; 20 g/ha): 80%; Pre-emergence action against VIOTR (Viola tricolor [16]; 80 g/ha): 100%; Post-emergence action against SETVI in % (Setaria viridis [17]): 80%
